Entries after “also recorded” stand apart in the source; their conditions may differ.
Key:
human skin = assay: Melanoidin formation in vivo on human skin; details: low concentrations of transimination nucleophilic catalyst
Protocol: The application areas were allowed to dry for 5 min and were monitored for 14 days, with photographs taken throughout. The subjects were asked not to bathe for the first 24 h. […] Significant differences in the appearance of the application areas were noticeable during the study, and no adverse reactions of any kind were observed. […] The preliminary results of these experiments are promising, and we plan to expand the study to incorporate a larger, statistically significant panel during phase II SBIR studies.

HbA = molecular target: T1, HbA (Homo sapiens, UniProt P69905); assay: 5HMF/HbA Schiff base adduct formation with purified HbA, cation-exchange HPLC; type: binding; details: for percent Hb adduct (5HMF/HbA): 30 min at room temperature, HbA 1 mg/ml PBS 7.4
T1 construct: purified HbA (1 mg/ml), from an anonymous human donor; from tissue; host or cells: blood of an anonymous human donor (purified HbA)
T1 sequence (P69905 2-142 limits assumed): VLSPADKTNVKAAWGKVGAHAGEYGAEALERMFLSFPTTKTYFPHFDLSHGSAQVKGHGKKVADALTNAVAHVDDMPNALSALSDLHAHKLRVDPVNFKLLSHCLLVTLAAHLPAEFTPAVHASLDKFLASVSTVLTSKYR
T1 sequence (P68871 2-147 partner limits assumed): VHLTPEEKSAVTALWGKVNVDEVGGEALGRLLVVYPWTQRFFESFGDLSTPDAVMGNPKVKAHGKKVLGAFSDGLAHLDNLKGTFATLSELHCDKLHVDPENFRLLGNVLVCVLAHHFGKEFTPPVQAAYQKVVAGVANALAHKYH
Protocol: The isolated imine of Example 1, formed by reacting p-aminobenzoic acid and 5-hydroxymethyl furfural, reacts with hemoglobin at faster rates than 5HMF. The therapeutic imine was synthesized according to Example 1. To a solution of purified HbA (1 mg/ml), from an anonymous human donor, in PBS 7.4 was added equivalent amounts of the therapeutic imine of AIC (1 mM), or 5HMF (1 mM). The HbA solutions show a new peak (˜7.1 min) on cation-exchange HPLC (Table 2) that elutes prior to the unmodified HbA peak (˜8.2 min). The new peak represents the […] formed between 5HMF and HbA and can be quantified by integration of the representative peaks. […] The initial rate of Schiff base adduct formation between the therapeutic imine and HbA is nearly 10 times faster than the rate of formation between 5HMF and HbA, as determined by cation-exchange HPLC at room temperature.

HbS [1] = molecular target: T2, HbS (Homo sapiens, UniProt P69905); assay: Ex vivo 5HMF/HbS adduct formation in whole blood, AIC vs 5HMF; type: cell-based, BERKγM mouse; details: for 5HMF/HbS adduct formed: 30 min at 37° C.
T2 construct: To aliquots of whole blood (100 μL), from the BERKγM mouse; from tissue; host or cells: red cells in whole blood of BERKγM / BERK M transgenic sickle mice (ex vivo incubation, or in vivo after i.v. injection)
Target sequence in this assay (P69905 2-142 limits assumed): as the sequence (P69905 2-142 limits assumed) above

[2] = Stability to air, light and moisture (controlled humidity chamber); type: physicochemical; details: 500 mg, light, 22° C., 2 wks
Protocol: The commercial-scale production, distribution and stability of 5HMF, a hygroscopic off-white solid, may be costly as the compound is highly susceptible to degradation upon exposure to air, light and moisture (21). […] To quantify the differences in stability, 500 mg of AIC or 5HMF were placed in a controlled humidity chamber and exposed to light at 22° C. for a period of 2 wks.

hemoglobin = hemoglobin (Homo sapiens, UniProt P69905); assay: Oxygen equilibrium curves of hemoglobin solutions (Hemox Analyzer); type: biochemical; details: for n50 (hill coefficient) / ΔP50 (%) / P50: no PABA
Sequence of hemoglobin (P69905 2-142 limits assumed): as above
Sequence of hemoglobin (P68871 2-147 partner limits assumed): as the sequence (P68871 2-147 partner limits assumed) above
Protocol: The oxygen equilibrium curves (OEC) of hemoglobin (1 mg/ml) in phosphate buffer saline pH 7.4 containing 100 mM, 10 mM or 1 mM of the sodium salt of p-aminobenzoate (Sigma) were determined with a Hemox Analyzer (TCS Scientific Corp.). Hemoglobin solutions were incubated at 37° C. for 1 h, in the presence (+) or absence (−) of each compound, as specified in Table 1.

HbS [3] = molecular target: T2, HbS; assay: Ex vivo 5HMF/HbS adduct formation in whole blood, PABA/5HMF mixtures; type: cell-based, BERKγM transgenic mouse; details: for 5HMF/HbS adduct formed: whole blood
Protocol: Studies were initiated to explore the impact of mixing equimolar concentrations of PABA and 5HMF on the rate of 5HMF/HbS adduct formation in whole blood from a BERKγM transgenic mouse. To aliquots of whole blood (100 μL) was added either 5HMF (2 mM or 5 mM), the sodium salt of PABA (2 mM or 5 mM), or equimolar concentrations of PABA/5HMF (2 mM or 5 mM). […] The rate enhancements are not optimized in these experiments, and additional experiments to account for the differences in rates of transport across the RBC membrane will be performed during Phase II SBIR studies.
Target sequence in this assay (P69905 2-142): as the sequence (P69905 2-142 limits assumed) above

HbS [4] = molecular target: T2, HbS; assay: In vivo 5HMF/HbS adduct formation after intravenous injection; design: species or system BERK M mice; details: 200 mg/kg each
Protocol: BERK M mice were injected (intravenous) with solutions containing either 5HMF (200 mg/kg) or 5HMF (200 mg/kg) and the sodium salt of PABA (200 mg/kg). […] To assess of 5HMF/HbS adduct formation, aliquots of blood were taken at 10 and 30 min, and immediately washed, lysed and subjected to HPLC as previously described.
Target sequence in this assay (P69905 2-142): as the sequence (P69905 2-142 limits assumed) above

sickle cells = details: in vitro, high concentrations of 5HMF; cited from earlier work
[5] = mouse, in vivo; cited from earlier work
[6] = Behaviour and toxicity after intravenous injection
T-cell surface amines = assay: Competitive covalent ligation assay, Tucaresol/T-cell adduct formation (flow cytometry); type: cell-based, Balb/c male mice; details: 500 μM Tucaresol and/or 1 mM PABA, 30 min, 37° C.
Description: The central hypothesis of our approach involves utilizing PABA to increase the rate of Schiff base formation between Tucaresol and T-cells in order to minimize the concentration of Tucaresol required for efficacy. We used an established competitive covalent ligation assay (2) to examine the influence of PABA on the rate and degree of Schiff base-adduct formation between Tucaresol and T-cells isolated from the spleens of Balb/c male mice. In this assay, the degree of Tucaresol/T-cell adduct formation is inversely proportional to the mean fluorescence intensity (as visualized by ligation with S-NHS-biotin and FITC-avidin). T-cells were incubated for 30 min with 500 μM Tucaresol only (blue column, FIG. 5), 1 mM PABA only (orange column, FIG. 5) or a mixture of 500 μM Tucaresol and 1 mM PABA (red column, FIG. 5) at 37° C. After 30 min, the reducing agent NaCNBH3 was added to selectively reduce Schiff base adducts (chemically trapping the Tucaresol/T-cell adduct). Washed cells were exposed for 1 h to 12.5 μM S-NHS-biotin (Pierce Rockford, Ill.) to ligate unreacted free surface amino groups. After washing, cells were exposed to excess fluorescent avidin (FITC-avidin) (Pierce), fixed and visualized using flow cytometry.

[7] = Melanoidin formation in vitro in glycine/DHA solutions; details: glycine (6%) and DHA (6%), 32° C.
Protocol: Solutions of glycine (6%) and DHA (6%) in 100 mM NH4OAc buffer pH 5.5 were incubated in the presence (+) and absence (−) of the sodium salt of PABA (1%) at 32° C.

[8] = humans; cited from earlier work
HIV-positive patients = details: cited from earlier work

## CCC=CCCOC(=O)c1ccccc1N [3-hexen-1-yl anthranilate]
Human skin
  rate at which melanoidin formation occurs on human skin: significantly increase the rate

## O=C(O)c1ccc(/N=C/c2ccc(CO)o2)cc1 [AIC, 4-((5-(hydroxymethyl)furan-2-yl)methyleneamino)benzoic acid]
HbA; 1 mM AIC or 1 mM 5HMF
  rate of 5HMF/HbA adduct formation vs 5HMF (in words): significantly enhanced rates
HbA; 1 mM
  percent Hb adduct (5HMF/HbA): ~32%
HbA; 1 mM, room temperature
  initial rate of Schiff base adduct formation with HbA relative to 5HMF: ~10 times
HbS [1]; 5 mM, whole blood
  5HMF/HbS adduct formed: 50%
HbS [1]; 5 mM, whole blood, initial rate measured after 10 min
  rate of 5HMF/HbS adduct formation vs 5HMF (in words): significantly faster; also recorded: significantly enhanced rates
HbS [1]; whole blood, 5 mM
  erythrocyte membrane permeation: permeates the erythrocyte membrane
[2]
  chemical change by 1HNMR spectra and HPLC chromatogram on storage: no changes
  color change on storage: did not exhibit a noticeable color change

## O=Cc1ccc(CO)o1 [Example 5HMF, 5-hydroxymethyl-2-furfural]
hemoglobin; Exp A: 1 mM 5HMF, 1 h 37° C.
  n50 (hill coefficient): 2.50
hemoglobin; Exp A: 1 mM 5HMF, 1 h 37° C., vs control P50
  ΔP50 (%): 7.53%
hemoglobin; Exp A: 1 mM 5HMF, Hb 1 mg/ml PBS pH 7.4, 1 h 37° C.
  P50: 14.00 mmHg
hemoglobin; Exp E: 3 mM 5HMF, 1 h 37° C.
  P50: 8.21 mmHg
  n50 (hill coefficient): 1.73
  ΔP50 (%): 45.78%
hemoglobin; Exp F: 5 mM 5HMF, 1 h 37° C.
  P50: 5.72 mmHg
  n50 (hill coefficient): 1.91
  ΔP50 (%): 62.22%
HbA; 1 mM
  percent Hb adduct (5HMF/HbA): 6%
HbS [1]; 5 mM, whole blood
  5HMF/HbS adduct formed: 27%
[2]
  chemical change by 1HNMR spectra and HPLC chromatogram on storage: After 3 days, the 5HMF sample has undergone significant chemical changes
  color change on storage: becomes yellow after 24 h
HbS [3]; 2 mM (equimolar for mixture), 37° C.
  5HMF/HbS adduct formed: 23%
HbS [3]; 5 mM (equimolar for mixture), 30 minutes at 37° C.
  5HMF/HbS adduct formed: 40%
HbS [4]; blood taken at 10 min
  5HMF/HbS adduct: 5.1%
HbS [4]; blood taken at 30 min
  5HMF/HbS adduct: 4.1%
Sickle cells
  hypoxia-induced formation of sickle cells: largely inhibited
[5]
  survival time of mice exposed to severe hypoxia: prolonged the survival time
[6]; 200 mg/kg, intravenous
  behavior of mice after injection: became lethargic and exhibited noticeable changes in behavior
[6]; higher concentrations of 5HMF (300-500 mg/kg)
  convulsion and death: caused mice to convulse and die

## CC1CCC(C(C)C)C(OC(=O)c2ccccc2N)C1 (stereo not drawn) [Menthyl-o-aminobenzoate]
Human skin
  rate at which melanoidin formation occurs on human skin: significantly increase the rate

## Nc1ccccc1C(=O)O [OABA, o-aminobenzoic acid]
Human skin
  rate at which melanoidin formation occurs on human skin: significantly increase the rate

## Nc1ccc(C(=O)O)cc1 [PABA, p-aminobenzoic acid]
hemoglobin; 100 mM, 10 mM or 1 mM PABA, no 5HMF
  shift of OEC / change in P50 value vs Hb control: did not shift the OEC or cause a change in the P50 value
HbA; PABA only control
  new adduct peak by HPLC: did not show a new peak
HbS [1]; PABA only negative control
  new adduct peak by HPLC: did not show a new peak
HbS [3]; 2 mM or 5 mM 5HMF with equimolar PABA, FIG. 2
  amount of 5HMF/HbS adduct formed in the presence of equimolar PABA (in words): significantly increased
HbS [3]; PABA only control (2 mM or 5 mM)
  adduct formation: did not result in any adduct formation
T-cell surface amines
  mean fluorescence intensity of T-cells (inversely proportional to Tucaresol/T-cell adduct formation): did not exhibit a change in mean fluorescent intensity
[7]; 100 mM NH4OAc pH 5.5, 1% PABA sodium salt, vs no PABA
  rate of darkening of solutions: darkened at faster rates
[7]; 1% PABA
  change of UV-Vis spectrum: changed more rapidly
Human skin
  rate at which melanoidin formation occurs on human skin: significantly increase the rate
[8]
  daily doses with no reported side effects: below 12 grams

## O=Cc1c(O)cccc1OCc1ccc(C(=O)O)cc1 [Tucaresol, 4(2-formyl-3-hydroxy-phenoxymethyl) benzoic acid]
HIV-positive patients; HIV-positive patients
  CD4+ counts: increase in CD4+ counts
  HIV viraemia: unaffected
HIV-positive patients; after the first dose
  Tucaresol-related serious adverse events (patients): 2/21

## CCCCOC(=O)c1ccccc1N [butyl anthranilate]
Human skin
  rate at which melanoidin formation occurs on human skin: significantly increase the rate

## CCOC(=O)c1ccccc1N [ethyl anthranilate]
Human skin
  rate at which melanoidin formation occurs on human skin: significantly increase the rate

## COC(=O)c1ccccc1N [methyl anthranilate]
Human skin
  rate at which melanoidin formation occurs on human skin: significantly increase the rate

— patent US9365532B1, “Synthesis, composition and use of novel therapeutic and cosmetic Schiff base products formed by reaction of a carbonyl containing moeity with a transimination nucleophilic catalyst and the use of transimination nucleophilic catalysts to increase the rate at which carbonyl containing therapeutic and …” (Nanometics, LLC., priority 2011, dated 2016)
